This data set in a line: Content of drug solution in 2-methyl-2-propanol during stirring by Polytron or stirrer. Type of data set: physicochemical. To be noted: about 40° C.; for Content [vs. 0 h %]: about 4.0 mg/mL in 2-methyl-2-propanol. On the procedure:
Then, whether the content and analogous substance are affected by stirring in a homomixer was considered. To cis[((1R,2R)-1,2-cyclohexanediamine-N,N′)bis(tetradecanoyloxy)]platinum(II) monohydrate was added 2-methyl-2-propanol to a liquid formulation concentration of about 4.0 mg/mL. This was prepared in two Erlenmeyer flasks. One Erlenmeyer flask was stirred with a stirrer at a liquid temperature of about 40° C. after ultrasonication. The other Erlenmeyer flask was stirred at about 10000 rpm at a liquid temperature of about 40° C. using Polytron pulverizer (pulverization diameter G8) manufactured by IKA that pulverizes and dissolves by the same mechanism as a homogenizer. The stirring was continued with the time point when the bulk was dissolved as 0 hr. The drug solution was sampled with the lapse of time and the dissolution state was observed and the content and analogous substances were measured.

The results in this text go back to patent US7351431B2, “Freeze-dried pharmaceutical preparation” (Dainippon Sumitomo Pharma Co., Ltd., priority 2001, dated 2008).

Each structure is given as a SMILES string.

On to `CCCCCCCCCCCCCC(=O)[O][Pt]1([O]C(=O)CCCCCCCCCCCCC)[NH][C@@H]2CCCC[C@H]2[NH]1` [bulk, cis[((1R,2R)-1,2-cyclohexanediamine-N,N′)bis(tetradecanoyloxy)]platinum(II) monohydrate], for which the “Content [vs. 0 h %]” value came to 100% (Polytron, stirring time 0); 99.5% (Polytron, stirring time 0.5 h); 99.4% (Polytron, stirring time 1 h); 100.9% (Polytron, stirring time 2 h); 100% (stirrer, stirring time 0); 100.9% (stirrer, stirring time 0.5 h). The “Content [vs. 0 h %]” value by setting is: (stirrer, stirring time 1 h) 100.2%; (stirrer, stirring time 2 h) 103.1%. Further, the “Content and analogous substances with the lapse of stirring time” value (any stirring method (Polytron or stirrer)) was “showed no change”.
